According to patent publication US8507411B2, “Neoglycorandomization and digitoxin analogs” (priority 2004, dated 2013):
pIC50: −log10 of the molar value. Where two headings read alike, the source gives them in different places.

What was measured:
NmuMG = test: cells; format: cell-based, mouse
Description: (§1) In the assay, live cells were distinguished by the presence of a ubiquitous intracellular enzymatic activity which converts the non-fluorescent cell-permeable molecule calcein AM to the intensely fluorescent molecule calcein, which is retained within live cells. The IC50 value for each library member represents at least six replicates of dose-response experiments conducted over five concentrations using two-fold dilutions. […] Standard errors are depicted with error bars. Numerical values and corresponding error values can be found in Table 4. Du145: […]; MCF7: human breast carcinoma; HCT-116: human colon carcinoma, Hep3B: human liver carcinoma; SF-268: human CNS glioblastoma; SK-OV-3: human ovary adenocarcinoma; NCI-H460: human lung carcinoma; A549: human lung adenocarcinoma; NCI/ADR-RES: human breast carcinoma; NmuMG: mouse mammary normal epithelial.
(§2) Cell Culture: All cell lines except NmuMG were maintained in RPMI 1640 medium from InVitrogen (Cat No. 11875-085) supplemented with 10% w/v fetal bovine serum (FBS) from ICN (Cat No. 2916154) and penicillin-streptomycin (PS) (100 U/mL and 100 μg/mL) from InVitrogen (Cat No. 15140-122). NmuMG cells were maintained in DMEM medium from InVitrogen (Cat No. 11965-084) supplemented with 10% w/v fetal bovine serum (FBS) from ICN (Cat No. 2916154), 10 μg/ml insulin (InVitrogen Cat No 12585-014), and penicillin-streptomycin (PS) (100 U/mL and 100 μg/mL) from InVitrogen (Cat No. 15140-122). Cells were harvested by trypsinization using 0.25% w/v trypsin and 0.1% w/v EDTA from InVitrogen (Cat No. 15-050-057) and then counted in a hemocytometer in duplicate with better than 10% agreement in field counts. Cells were plated at a cell density of 10,000-15,000 cells/well of each Corning Costar 96-well black tissue culture treated microtiter plate (Fisher Cat No. 07-200-627). Cells were grown for 1 h at 37° C., with 5% CO2 in a humidified incubator to allow cell attachment to occur before compound addition.
(§3) Library Member Handling and Preparation for Cytotoxicity Assays: Library members were stored at −20° C. under dessicating conditions before the assay. Library member stocks (100×) were prepared in Corning Costar polypropylene 96-well V-bottom polypropylene microtiter plates (Fisher Cat No. 07-200-695). Five serial 1:2 dilutions were made with anhydrous DMSO at 100× the final concentration used in the assay.
(§4) Library Member Addition: The library member-containing plates were diluted 1:10 with complete cell culture media. The 10× stocks (10 μL) were added to the attached cells using a Biomek FX liquid handler (Beckman-Coulter). Library member stocks (10 μL) were added to 90 μL of cells in each plate to insure full mixing of stocks with culture media using a Beckman FX liquid handler with 96-well head.
(§5) Determination of Cytotoxicity: Cells were incubated with the library members for 72 h before fluorescence reading. Test plates were removed from the incubator and washed 1× in sterile PBS to remove serum containing calcium esterases. Calcein AM reagent (30 μL, […]) was added and the cells were incubated for 30 min at 37° C. Plates were read for emission using a fluorescein filter (excitation 485 nm, emission 535 nm).
(§6) IC50 Calculation: For each library member, at least six dose response experiments were conducted. […] To calculate IC50, percent inhibitions were plotted as a function of log [concentration] and then fit to a four-parameter logistic model that allowed for a variable Hill slope using XLfit 4.1.
(§7) Cytotoxicity Assays. All cell lines except NmuMG were maintained in RPMI 1640 medium supplemented with 10% w/v fetal bovine serum (FBS) and penicillin-streptomycin (PS) (100 U/mL and 100 μg/mL).

Hep3B = test: High-throughput calcein AM cytotoxicity assay, Hep3B; format: cell-based, human; conditions: Hep 3B cells
Description: (§8) Standard errors are depicted with error bars.

NCI-H460 = test: High-throughput calcein AM cytotoxicity assay, NCI-H460; format: cell-based, human; conditions: NCI-H460 cells
Description: as §8

SK-OV-3 = test: cells; format: cell-based, human; conditions: SK-OV-3 cells
Description: as §1, §2, §3, §4, §5, §6, §7

SF-268 = test: cells; format: cell-based, human; conditions: SF-268 cells
Description: as §1, §2, §3, §4, §5, §6, §7

NCI/ADR-RES = test: cells; format: cell-based, human; conditions: NCI/ADR-RES cells
Description: as §1, §2, §3, §4, §5, §6, §7

MCF7 = test: High-throughput calcein AM cytotoxicity assay, MCF7; format: cell-based, human; conditions: MCF7 cells
Description: as §8

Du145 = test: High-throughput calcein AM cytotoxicity assay, Du145; format: cell-based, human; conditions: Du145 cells
Description: as §8

HCT-116 = test: High-throughput calcein AM cytotoxicity assay, HCT-116; format: cell-based, human; conditions: HCT-116 cells
Description: as §8

A549 = test: High-throughput calcein AM cytotoxicity assay, A549; format: cell-based, human; conditions: A549 cells
Description: as §8

[1] = NmuMG mouse mammary normal epithelial control line, read-out: IC50, NmuMG
[2] = NmuMG cells (mouse mammary normal epithelial control line), read-out: IC50

Row | Compound | pIC50 (NmuMG; [1]) | pIC50 (Hep3B; read-out: IC50, Hep 3B) | pIC50 (NCI-H460; read-out: IC50, NCI-H460) | pIC50 (SK-OV-3; read-out: IC50, SK-OV-3) | pIC50 (SF-268; read-out: IC50, SF-268) | pIC50 (NCI/ADR-RES; read-out: IC50, NCI/ADR-RES) | pIC50 (MCF7; read-out: IC50, MCF7) | pIC50 (Du145; read-out: IC50, Du145) | pIC50 (HCT-116; read-out: IC50, HCT-116) | pIC50 (A549; read-out: IC50, A549) | pIC50 (NmuMG; [2]) | pIC50 (Hep3B; read-out: IC50) | pIC50 (NCI-H460; read-out: IC50) | pIC50 (SK-OV-3; read-out: IC50) | pIC50 (SF-268; read-out: IC50) | pIC50 (NCI/ADR-RES; read-out: IC50) | pIC50 (MCF7; read-out: IC50) | pIC50 (Du145; read-out: IC50) | pIC50 (HCT-116; read-out: IC50) | pIC50 (A549; read-out: IC50)
1 | CON(C1CCC2(C)C(CCC3C2CCC2(C)C(C4=CC(=O)OC4)CCC32O)C1)C1OCC(O)C(O)C1O [14α, L-lyxoside] | < 4.60 | < 4.60 | < 4.60 | < 4.60 | < 4.60 | < 4.60 | < 4.60 | < 4.60 | < 4.60 | < 4.60 | – | – | – | – | – | – | – | – | – | –
2 | CON(C1CCC2(C)C(CCC3C2CCC2(C)C(C4=CC(=O)OC4)CCC32O)C1)C1OC(CO)C(O)C(O)C1NC(C)=O [34β, N-acetyl-D-galactosaminoside] | < 4.60 | 4.77 | 4.70 | 4.77 | < 4.60 | 5.19 | < 4.60 | < 4.60 | < 4.60 | < 4.60 | – | – | – | – | – | – | – | – | – | –
3 | CON(C1CCC2(C)C(CCC3C2CCC2(C)C(C4=CC(=O)OC4)CCC32O)C1)C1OC(CF)C(O)C(O)C1O [13α, 6-deoxy-6-fluoro-D-glucoside] | < 4.60 | < 4.60 | < 4.60 | < 4.60 | < 4.60 | < 4.60 | < 4.60 | < 4.60 | < 4.60 | < 4.60 | – | – | – | – | – | – | – | – | – | –
4 | CON(C1CCC2(C)C(CCC3C2CCC2(C)C(C4=CC(=O)OC4)CCC32O)C1)C1OC(CO)C(O)C(O)C1O [17α, L-alloside] | < 4.60 | < 4.60 | < 4.60 | < 4.60 | < 4.60 | < 4.60 | < 4.60 | < 4.60 | < 4.60 | < 4.60 | – | – | – | – | – | – | – | – | – | –
5 | CON(C1CCC2(C)C(CCC3C2CCC2(C)C(C4=CC(=O)OC4)CCC32O)C1)C1OC(CO)C(O)C(O)C1O [27α, D-mannoside] | – | < 4.60 | < 4.60 | < 4.60 | < 4.60 | < 4.60 | < 4.60 | < 4.60 | < 4.60 | < 4.60 | < 4.60 | – | – | – | – | – | – | – | – | –
6 | CON(C1CCC2(C)C(CCC3C2CCC2(C)C(C4=CC(=O)OC4)CCC32O)C1)C1OC(C)C(O)C(O)C1O [11α, 6-deoxy-D-glucoside] | < 4.60 | < 4.60 | < 4.60 | < 4.60 | < 4.60 | < 4.60 | < 4.60 | < 4.60 | < 4.60 | < 4.60 | – | – | – | – | – | – | – | – | – | –
7 | CON([C@H]1CC[C@@]2(C)[C@H](CC[C@@H]3[C@@H]2CC[C@]2(C)[C@@H](C4=CC(=O)OC4)CC[C@]32O)C1)[C@H]1O[C@@H](CO)[C@H](O)[C@@H](O)[C@H]1O [26β, L-mannoside] | 5.89 | 5.70 | 5.80 | 5.51 | 5.68 | 5.32 | 5.52 | 5.70 | 5.38 | 5.77 | – | – | – | – | – | – | – | – | – | –
8 | CON(C1CCC2(C)C(CCC3C2CCC2(C)C(C4=CC(=O)OC4)CCC32O)C1)C1OCC(O)C(O)C1O [6α, D-riboside] | < 4.60 | < 4.60 | < 4.60 | < 4.60 | < 4.60 | < 4.60 | < 4.60 | < 4.60 | < 4.60 | < 4.60 | – | – | – | – | – | – | – | – | – | –
9 | CON(C1CCC2(C)C(CCC3C2CCC2(C)C(C4=CC(=O)OC4)CCC32O)C1)C1OC(CO)C(O)C(O)C1O [21α, L-galactoside] | < 4.60 | < 4.60 | < 4.60 | < 4.60 | < 4.60 | < 4.60 | < 4.60 | < 4.60 | < 4.60 | < 4.60 | – | – | – | – | – | – | – | – | – | –
10 | CON(C1CCC2(C)C(CCC3C2CCC2(C)C(C4=CC(=O)OC4)CCC32O)C1)C1OC(CO)C(OC2OC(CO)C(O)C(O)C2O)C(O)C1O (stereo not drawn) [36α, lactoside] | – | – | – | – | – | – | – | – | – | – | < 4.60 | < 4.60 | < 4.60 | < 4.60 | < 4.60 | < 4.60 | < 4.60 | < 4.60 | < 4.60 | < 4.60
11 | L-rhamnoside [16α] | < 4.60 | < 4.60 | < 4.60 | < 4.60 | < 4.60 | < 4.60 | < 4.60 | < 4.60 | < 4.60 | < 4.60 | – | – | – | – | – | – | – | – | – | –
12 | CON([C@H]1CC[C@@]2(C)[C@H](CC[C@@H]3[C@@H]2CC[C@]2(C)[C@@H](C4=CC(=O)OC4)CC[C@]32O)C1)[C@H]1O[C@@H](CO)[C@H](O)[C@H](O)[C@@H]1O [17β, L-alloside] | 6.48 | 6.10 | 6.16 | 6.15 | 6.40 | 6.80 | 6.05 | 6.10 | 6.30 | 6.62 | – | – | – | – | – | – | – | – | – | –
